# Earlier results, collected in patent US7122627B2, “Lactam inhibitors of Hepatitis C virus NS3 protease” (Bristol-Myers Squibb Company, priority 1999, dated 2006).
# [ ]: non-standard residue; d: D form.
substance,measurement,setting,value
Ac-Asp-Glu-Dpa-Glu-Cha-Cys-OH,Ki,HCV protease; reported in Biochemistry 37 (1998),< 1000 nM
Ac-D[dD]IVPC-OH,effectiveness compared with all L isomer,HCV protease; Llinas-Brunet et al. Bioorg. Med. Chem. Lett. 8 1713-1718 (1998),more effective than its all “L” isomer
alpha interferon,patients in whom treatment is effective,"Hepatitis C virus (HCV); current treatment, monotherapy",15-20%
alpha interferon and ribavirin,patients with sustained efficacy,"Hepatitis C virus (HCV); combination therapy, Poynard et al. Lancet 1998",40%
